Reference: article PMC9332756, “Exploration of Diazaspiro Cores as Piperazine Bioisosteres in the Development of σ2 Receptor Ligands” (International Journal of Molecular Sciences, 2022)

What was measured:
[1] = target: T1, σ1R (Cavia porcellus, UniProt Q60492); assay: σ1R radioligand binding assay with [3H]-(+)-pentazocine, Guinea pig brain homogenates; details: mean ± SEM, at least three experiments
T1 construct: from tissue; host or cells: Guinea pig brain homogenate
Protocol: (§1) Radioligand binding assays were conducted using [^125I]RHM-4 with rat liver homogenates for σ2R-binding properties and a σ1R assay using [^3H]-(+)-pentazocine with Guinea pig brain homogenates. Evaluation of the compounds in the in vitro radioligand binding studies was conducted using a two-step process. […] Compounds displaying ≥ 50% displacement of radioligand binding in σ1 and σ2 assays (Table 1) were chosen for full competition studies using 10 different concentrations of the displacer. A representative competition curve at σ1 and σ2 receptors is shown for compound 2t in Figure 2.
(§2) For screening, [^3H]-(+)-pentazocine (~50,000 cpm) or [^125I]RHM-4 (~200,000 cpm) was mixed with 100 nM of tested compounds. Guinea pig brain homogenates (100 µg) or rat liver homogenates (15 µg) were added to mixture and incubated at 37 °C for 90 min. The mixture was filtered by harvester and washed 3 times using cold washing buffer (10 mM Tris-HCl, 150 mM NaCl). Collected filter was mixed with 3 mL of microscintTM20 and counted 1 min/well using beta counter. […] After that, protein was added and incubated at 37 °C for 90 min. The bound form was filtered by Whatman CF/C filter which was soaked in 1% of polyethyleneimine (PEI) in DW and then filters were washed tree times with cold washing buffer. The non-specific binding was determined in the presence of 10 µM of haloperidol or cold RHM-4. Filter was collected and read by scintillation counting (MicroBeta2 ®, PerkinElmer, Beaconsfield, UK) or gamma counter (PerkinElmer, Beaconsfield, UK). The data were analyzed using PRISM 8 (GraphPad Inc., San Diego, CA, USA).

[2] = target: T2, σ2R (Rattus norvegicus, UniProt Q5U3Y7); assay: σ2R radioligand binding assay with [125I]RHM-4, rat liver homogenates; details: for σ1/σ2 Ratio: ratio of Ki σ1R to Ki σ2R; for Ki: rat liver homogenates, [125I]RHM-4, mean ± SEM, at least three experiments
T2 construct: from tissue; host or cells: rat liver homogenate
T2 sequence (Q5U3Y7 1-176): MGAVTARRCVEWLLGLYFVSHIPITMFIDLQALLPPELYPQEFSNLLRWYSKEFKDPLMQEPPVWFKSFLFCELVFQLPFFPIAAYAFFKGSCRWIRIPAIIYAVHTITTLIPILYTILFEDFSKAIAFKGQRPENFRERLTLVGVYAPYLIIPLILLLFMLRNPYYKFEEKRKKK
Protocol: as §1, §2

[3] = target: T2, σ2R; assay: as above; details: three-point screening assay (10 nM, 100 nM, 1 μM)
[4] = target: σ2R; details: Figure 1; cited from earlier work
[5] = target: σ1R; details: Figure 1; cited from earlier work

T1 sequence (Q60492 whole entry): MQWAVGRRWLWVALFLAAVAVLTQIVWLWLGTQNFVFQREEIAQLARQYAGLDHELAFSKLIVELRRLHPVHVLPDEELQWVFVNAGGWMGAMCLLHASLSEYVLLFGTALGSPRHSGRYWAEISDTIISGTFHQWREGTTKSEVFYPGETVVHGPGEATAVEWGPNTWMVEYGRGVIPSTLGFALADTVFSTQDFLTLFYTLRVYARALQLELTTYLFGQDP

Structure (SMILES): Cn1c(=O)n(CCCCN2CCN(c3ccc(F)cc3)CC2)c2ccccc21 [Compound 1, reference compound]
- Ki [1]: 251 ± 48.1 nM
- σ1/σ2 Ratio [2]: 279

Structure (SMILES): Cn1c(=O)n(CCCCN2CCC3(CC2)CCN(c2ccccc2F)CC3)c2ccccc21 [Compound 2e]
- Ki [1]: 659 ± 84.2 nM
- Ki [2]: 24.4 ± 3.3 nM
- σ1/σ2 Ratio [2]: 27

Structure (SMILES): Cn1c(=O)n(CCCCN2CC3(C2)CN(c2ccccc2F)C3)c2ccccc21 [Compound 2n]
- Ki [1]: 20.5 ± 3.3 nM
- Ki [2]: 41.8 ± 7.5 nM
- σ1/σ2 Ratio [2]: 0.5

Structure (SMILES): Cn1c(=O)n(CCCCN2CC3(C2)CN(c2ccc(F)cc2)C3)c2ccccc21 [Compound 2o]
- Ki [1]: 45.9 ± 6.8 nM
- Ki [2]: 40 ± 3.2 nM
- σ1/σ2 Ratio [2]: 1.1

Structure (SMILES): Cn1c(=O)n(CCCCN2CC3CCCC(C2)N3c2ccc(F)cc2)c2ccccc21 [Compound 2p]
- affinity for the σ2R (in words) [3]: low affinity

Structure (SMILES): Cn1c(=O)n(CCCCN2CC3CCC(C2)N3c2ccc(F)cc2)c2ccccc21 [Compound 2q]
- affinity for the σ2R (in words) [3]: low affinity

Structure (SMILES): Cn1c(=O)n(CCCCN2CC3CC2CN3c2ccc(F)cc2)c2ccccc21 (stereo not shown) [Compound 2r]
- Ki [1]: 712 ± 135 nM
- Ki [2]: 10.7 ± 1.8 nM
- σ1/σ2 Ratio [2]: 66

Structure (SMILES): Cn1c(=O)n(CCCCN2CC3CCN(c4ccc(F)cc4)C3C2)c2ccccc21 (stereo not shown) [Compound 2s]
- affinity for the σ2R (in words) [3]: low affinity

Structure (SMILES): Cn1c(=O)n(CCCCN2CCCN(c3ccc(F)cc3)CC2)c2ccccc21 [Compound 2t]
- Ki [1]: 255 ± 29.9 nM
- Ki [2]: 3.8 ± 0.9 nM
- σ1/σ2 Ratio [2]: 67

Structure (SMILES): CCN(c1ccc(F)cc1)C1CN(CCCCn2c(=O)n(C)c3ccccc32)C1 [Compound 2u]
- Ki [1]: 279 ± 30.7 nM
- Ki [2]: 18.8 ± 1.6 nM
- σ1/σ2 Ratio [2]: 15

Structure (SMILES): Cn1c(=O)n(CCCCN2CCN(c3cccc(F)c3)CC2)c2ccccc21 [Compound 7, reference compound]
- Ki [1]: 702 ± 272 nM
- Ki [2]: 2 ± 0.6 nM
- σ1/σ2 Ratio [2]: 351

Structure (SMILES): COc1cccc2c1CCCC2CCCN1CCN(C2CCCCC2)CC1 (stereo not shown) [PB28, 1-cyclohexyl-4-[3-(5-methoxy-1,2,3,4-tetrahydronaphthalen-1-yl)propyl]piperazine]
- Ki [4]: 0.68 ± 0.2 nM
- Ki [5]: 0.38 ± 0.1 nM

Structure (SMILES): COc1cc2c(cc1OC)CN(CCCCNC(=O)c1cc(I)cc(OC)c1OC)CC2 [RHM-4]
- Ki [4]: 1 nM
- Ki [5]: 554 nM

Structure (SMILES): COc1ccc(C)cc1NC(=O)OC1CC2CCCC(C1)N2CCCCCCN (stereo not shown) [SV 119]
- Ki [4]: 5.19 ± 0.8 nM
- Ki [5]: 1420 ± 439 nM

Structure (SMILES): Fc1ccc(-n2cc(CCCCN3CCC4(CC3)OCc3ccccc34)c3ccccc32)cc1 [Siramesine]
- Ki [4]: 0.12 nM
- Ki [5]: 17 nM
